Source: patent US10806785B2, “Immunomodulator compounds and methods of use” (Incyte Corporation, priority 2016, dated 2020)

These compounds were tested against PD-1/PD-L1 (Homo sapiens (Human), UniProt Q9NZQ7) (assay: PD-1/PD-L1 binding assay (HTRF)).
How it was run: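 HTRF read-out (665/620 nm) after 60 min at 25 °C with 1 nM Eu anti-human IgG and 20 nM APC anti-His. Beforehand, inhibitors were preincubated 40 min with Fc-PD-1 (25-167, […] as listed) and His-PD-L1 (19-238, 10 nM) in PBS pH 7.4 with Tween-20, BSA, 1% DMSO; IC50 from log-concentration curve.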

PD-1/PD-L1, sequence (Q9NZQ7 19-238): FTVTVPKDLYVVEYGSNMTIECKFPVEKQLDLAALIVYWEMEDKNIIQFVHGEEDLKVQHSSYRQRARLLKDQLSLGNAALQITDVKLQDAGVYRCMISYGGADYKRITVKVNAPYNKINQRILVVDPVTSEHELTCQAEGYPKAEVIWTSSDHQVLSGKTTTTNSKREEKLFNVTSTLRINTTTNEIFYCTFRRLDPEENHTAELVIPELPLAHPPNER

IC50, ≤ 10 nM:
Cc1c(NC(=O)c2nc3c(n2C)CCN(C2CCOCC2)C3)cccc1-c1cccc(NC(=O)c2nc3c(n2C)CCN(C[C@H]2CC[C@H](C(=O)O)CC2)C3)c1Cl [Example 123, trans-4-((2-((2-chloro-2′-methyl-3′-(1-methyl-5-(tetrahydro-2H-pyran-4-yl)-4,5,6,7-tetrahydro-1H-imidazo[4,5-c]pyridine-2-carboxamido)-[1,1′-biphenyl]-3-yl)carbamoyl)-1-methyl-1,4,6,7-tetrahydro-5H-imidazo[4,5-c]pyridin-5-yl)methyl)cyclohexane-1-carboxylic acid]
CC(=O)N1CCC(N2CCc3c(nc(C(=O)Nc4cccc(-c5cccc(NC(=O)c6nc7c(n6C)CCN(C)C7)c5Cl)c4C)n3C)C2)CC1 [Example 34, 5-(1-acetylpiperidin-4-yl)-N-(2′-chloro-3′-(1,5-dimethyl-4,5,6,7-tetrahydro-1H-imidazo[4,5-c]pyridine-2-carboxamido)-2-methylbiphenyl-3-yl)-1-methyl-4,5,6,7-tetrahydro-1H-imidazo[4,5-c]pyridine-2-carboxamide]
CCN(C)CCC(=O)N1Cc2nc(-c3cccc(-c4cccc(NC(=O)c5nc6c(n5C)CCN(C5CCC(C)(C(=O)O)CC5)C6)c4Cl)c3Cl)oc2C1 (stereo not drawn) [Compound 174, 4-(2-((2,2′-dichloro-3′-(5-(3-(ethyl(methyl)amino)propanoyl)-5,6-dihydro-4H-pyrrolo[3,4-d]oxazol-2-yl)-[1,1′-biphenyl]-3-yl)carbamoyl)-1-methyl-1,4,6,7-tetrahydro-5H-imidazo[4,5-c]pyridin-5-yl)-1-methylcyclohexane-1-carboxylic acid]
CCC1(C(=O)O)CCC(N2CCc3c(nc(C(=O)Nc4cccc(-c5cccc(NC(=O)c6nc7c(n6C)CCN(C)C7)c5C)c4Cl)n3C)C2)CC1 (stereo not drawn) [Example 121, 4-(2-((2-chloro-3′-(1,5-dimethyl-4,5,6,7-tetrahydro-1H-imidazo[4,5-c]pyridine-2-carboxamido)-2′-methyl-[1,1′-biphenyl]-3-yl)carbamoyl)-1-methyl-1,4,6,7-tetrahydro-5H-imidazo[4,5-c]pyridin-5-yl)-1-ethylcyclohexane-1-carboxylic acid]
Cc1c(NC(=O)c2nc3c(n2C)CCN(C)C3)cccc1-c1cccc(NC(=O)c2nc3c(n2C)CCN(C[C@H]2CC[C@H](C(=O)O)CC2)C3)c1Cl [Example 116, trans-4-((2-((2-chloro-3′-(1,5-dimethyl-4,5,6,7-tetrahydro-1H-imidazo[4,5-c]pyridine-2-carboxamido)-2′-methyl-[1,1′-biphenyl]-3-yl)carbamoyl)-1-methyl-1,4,6,7-tetrahydro-5H-imidazo[4,5-c]pyridin-5-yl)methyl)cyclohexane-1-carboxylic acid]
Cc1c(NC(=O)c2nc3c(n2C)CCN(C[C@H]2CC[C@@H](C(=O)O)CC2)C3)cccc1-c1cccc(NC(=O)c2nc3c(n2C)CCNC3)c1Cl [Example 113, cis-4-((2-((2′-chloro-2-methyl-3′-(1-methyl-4,5,6,7-tetrahydro-1H-imidazo[4,5-c]pyridine-2-carboxamido)-[1,1′-biphenyl]-3-yl)carbamoyl)-1-methyl-1,4,6,7-tetrahydro-5H-imidazo[4,5-c]pyridin-5-yl)methyl)cyclohexane-1-carboxylic acid]
Cc1c(NC(=O)c2nc3c(n2C)CCN(C2CCOCC2)C3)cccc1-c1cccc(NC(=O)c2nc3c(n2C)CCN(C)C3)c1Cl [Example 29, N-(2-chloro-2′-methyl-3′-(1-methyl-5-(tetrahydro-2H-pyran-4-yl)-4,5,6,7-tetrahydro-1H-imidazo[4,5-c]pyridine-2-carboxamido)biphenyl-3-yl)-1,5-dimethyl-4,5,6,7-tetrahydro-1H-imidazo[4,5-c]pyridine-2-carboxamide]
CN1CCc2c(nc(C(=O)Nc3cccc(-c4cccc(NC(=O)c5nc6c(n5C)CCN(C5CCC(C)(C(=O)O)CC5)C6)c4Cl)c3Cl)n2C)C1 (stereo not drawn) [Example 80, 4-(2-((2,2′-dichloro-3′-(1,5-dimethyl-4,5,6,7-tetrahydro-1H-imidazo[4,5-c]pyridine-2-carboxamido)-[1,1′-biphenyl]-3-yl)carbamoyl)-1-methyl-1,4,6,7-tetrahydro-5H-imidazo[4,5-c]pyridin-5-yl)-1-methylcyclohexane-1-carboxylic acid]
Cn1c(C(=O)Nc2cccc(-c3cccc(NC(=O)c4nc5c(n4C)CCN(C4CCOCC4)C5)c3Cl)c2Cl)nc2c1CCN(C[C@H]1CC[C@H](C(=O)O)CC1)C2 [Example 64, trans-4-((2-(2,2′-dichloro-3′-(1-methyl-5-(tetrahydro-2H-pyran-4-yl)-4,5,6,7-tetrahydro-1H-imidazo[4,5-c]pyridine-2-carboxamido)biphenyl-3-ylcarbamoyl)-1-methyl-6,7-dihydro-1H-imidazo[4,5-c]pyridin-5(4H)-yl)methyl)cyclohexane-1-carboxylic acid]
CCN1CCc2c(nc(C(=O)Nc3cccc(-c4cccc(NC(=O)c5nc6c(n5C)CCN(C[C@H]5CC[C@H](C(=O)O)CC5)C6)c4Cl)c3Cl)n2C)C1 [Example 62, trans-4-((2-(2,2′-dichloro-3′-(5-ethyl-1-methyl-4,5,6,7-tetrahydro-1H-imidazo[4,5-c]pyridine-2-carboxamido)biphenyl-3-ylcarbamoyl)-1-methyl-6,7-dihydro-1H-imidazo[4,5-c]pyridin-5(4H)-yl)methyl)cyclohexane-1-carboxylic acid]
Cc1c(NC(=O)c2nc3c(n2C)CCN(C[C@H](C)O)C3)cccc1-c1cccc(NC(=O)c2nc3c(n2C)CCN(C(C)C)C3)c1Cl [Example 45, (S)—N-(2-chloro-3′-(5-(2-hydroxypropyl)-1-methyl-4,5,6,7-tetrahydro-1H-imidazo[4,5-c]pyridine-2-carboxamido)-2′-methylbiphenyl-3-yl)-5-isopropyl-1-methyl-4,5,6,7-tetrahydro-1H-imidazo[4,5-c]pyridine-2-carboxamide]
Cc1c(NC(=O)c2nc3c(n2C)CCN(CCO)C3)cccc1-c1cccc(NC(=O)c2nc3c(n2C)CCN(CC[C@H]2CC[C@H](C(=O)O)CC2)C3)c1Cl [Example 132, trans-4-(2-(2-((2-chloro-3′-(5-(2-hydroxyethyl)-1-methyl-4,5,6,7-tetrahydro-1H-imidazo[4,5-c]pyridine-2-carboxamido)-2′-methyl-[1,1′-biphenyl]-3-yl)carbamoyl)-1-methyl-1,4,6,7-tetrahydro-5H-imidazo[4,5-c]pyridin-5-yl)ethyl)cyclohexane-1-carboxylic acid]
Cc1c(NC(=O)c2nc3c(n2C)CCN(CC2(CO)CC2)C3)cccc1-c1cccc(NC(=O)c2nc3c(n2C)CCN(C)C3)c1Cl [Example 31, N-(2′-chloro-3′-(1,5-dimethyl-4,5,6,7-tetrahydro-1H-imidazo[4,5-c]pyridine-2-carboxamido)-2-methylbiphenyl-3-yl)-5-((1-(hydroxymethyl)cyclopropyl)methyl)-1-methyl-4,5,6,7-tetrahydro-1H-imidazo[4,5-c]pyridine-2-carboxamide]
Cc1c(COc2cc(OCc3cncc(C#N)c3)c(CN3CCCC[C@H]3C(=O)O)cc2Cl)cccc1-c1cccc(NC(=O)c2nc3c(n2C)CCN(C)C3)c1Cl [Example 54, (S)-1-(5-chloro-4-((2′-chloro-3′-(1,5-dimethyl-4,5,6,7-tetrahydro-1H-imidazo[4,5-c]pyridine-2-carboxamido)-2-methyl-[1,1′-biphenyl]-3-yl)methoxy)-2-((5-cyanopyridin-3-yl)methoxy)benzyl)piperidine-2-carboxylic acid]
C[C@H](O)CN1CCc2c(nc(C(=O)Nc3cccc(-c4cccc(NC(=O)c5nc6c(n5C)CCN(C[C@H]5CC[C@@H](C(=O)O)CC5)C6)c4Cl)c3Cl)n2C)C1 [Example 75, cis-4-((2-((2,2′-dichloro-3′-(5-((S)-2-hydroxypropyl)-1-methyl-4,5,6,7-tetrahydro-1H-imidazo[4,5-c]pyridine-2-carboxamido)-[1,1′-biphenyl]-3-yl)carbamoyl)-1-methyl-1,4,6,7-tetrahydro-5H-imidazo[4,5-c]pyridin-5-yl)methyl)cyclohexane-1-carboxylic acid]
Cc1c(NC(=O)c2nc3c(n2C)CCN(C[C@H](C)O)C3)cccc1-c1cccc(NC(=O)c2nc3c(n2C)CCN(C2CCN(S(C)(=O)=O)CC2)C3)c1Cl [Example 43, (S)—N-(2′-chloro-2-methyl-3′-(1-methyl-5-(1-(methylsulfonyl)piperidin-4-yl)-4,5,6,7-tetrahydro-1H-imidazo[4,5-c]pyridine-2-carboxamido)biphenyl-3-yl)-5-(2-hydroxypropyl)-1-methyl-4,5,6,7-tetrahydro-1H-imidazo[4,5-c]pyridine-2-carboxamide]
Cc1c(-c2nc3c(s2)CN(C(=O)CN(C)C(C)C)C3)cccc1-c1cccc(NC(=O)c2nc3c(n2C)CCN(C[C@H]2CC[C@H](C(=O)O)CC2)C3)c1Cl [Compound 158, trans-4-((2-(2-chloro-3′-(5-(2-(isopropyl(methyl)amino)acetyl)-5,6-dihydro-4H-pyrrolo[3,4-d]thiazol-2-yl)-2′-methylbiphenyl-3-ylcarbamoyl)-1-methyl-6,7-dihydro-1H-imidazo[4,5-c]pyridin-5(4H)-yl)methyl)cyclohexane-1-carboxylic acid]
Cc1c(-c2nc3c(o2)CN(C(=O)CN[C@H]2C[C@@H](O)C2)C3)cccc1-c1cccc(NC(=O)c2nc3c(n2C)CCN(C)C3)c1Cl [Compound 165, N-(2-chloro-3′-(5-((cis-3-hydroxycyclobutyl)glycyl)-5,6-dihydro-4H-pyrrolo[3,4-d]oxazol-2-yl)-2′-methyl-[1,1′-biphenyl]-3-yl)-1,5-dimethyl-4,5,6,7-tetrahydro-1H-imidazo[4,5-c]pyridine-2-carboxamide]
